From patent publication US9573921B2, “Substituted N, N-dimethylaminoalkyl ethers of isoflavanone oximes as H1-receptor antagonists” (POLFARMEX S.A., priority 2013, dated 2017)

Biological target: T1, H3 (Cavia porcellus, UniProt Q9JI35)
T1 construct: Whole jejunum segments (2 cm) were prepared and mounted between two platinum electrodes; from tissue; host or cells: guinea pig jejunum (small intestine, 20-50 cm proximal to the ileocaecal valve)
Assay: H3 antagonistic effects in vitro, electrically stimulated guinea pig jejunum, versus (R)-α-methylhistamine
Assay type: cell-based
Settings: (R)-α-methylhistamine as H3-agonist, pyrilamine 1·10^-5 mol/L present, Schild regression, read-out: pA2 (H3-antagonistic activity) (converted)
Protocol: Selected compounds were tested for H3 antagonistic effects in vitro, following standard methods, using the guinea pig ileum (R. C. Vollinga, O. P. Zuiderveld, H. Scheerens, A. Bast, H. Timmerman, Meth. Find. Exp. Cli. Pharmacol. 1992, 105, 747-751). Male guinea pigs weighing 300-400 g were sacrificed by a blow on the head. A portion of the small intestine, 20-50 cm proximal to the ileocaecal valve (jejunum), was removed and placed in Krebs buffer (composition (mM) NaCl 118; KCl 5.6; MgSO4 1.18; CaCl2 2.5; NaH2PO4 1.28; NaHCO3 25; glucose 5.5 and indomethacin (1 10^−6 mol/L)). […] Contractions were recorded isotonically under 1.0 g tension with Hugo Sachs Hebel-Messvorsatz (T1-2)/HF-modem (Hugo Sachs Electronik, Hugstetten, Germany) connected to a pen recorder. […] After 30 min of stimulation, five minutes before adding (R)-α-methylhistamine, pyrilamine (1.10^−5 mol/L concentration in organ bath) was added, and then cumulative concentration-response curves (half-log increments) of (R)-α-methylhistamine, H3-agonist, were recorded until no further change in response was found. Five minutes before adding the tested compounds, the pyrilamine (1 10^−5 mol/L concentration in organ bath) was added, and after 20 minutes cumulative concentration-response curves (half-log increments) of (R)-α-methylhistamine, H3-agonist, were recorded until no further change in response was found. […]

T1 sequence (Q9JI35 whole entry): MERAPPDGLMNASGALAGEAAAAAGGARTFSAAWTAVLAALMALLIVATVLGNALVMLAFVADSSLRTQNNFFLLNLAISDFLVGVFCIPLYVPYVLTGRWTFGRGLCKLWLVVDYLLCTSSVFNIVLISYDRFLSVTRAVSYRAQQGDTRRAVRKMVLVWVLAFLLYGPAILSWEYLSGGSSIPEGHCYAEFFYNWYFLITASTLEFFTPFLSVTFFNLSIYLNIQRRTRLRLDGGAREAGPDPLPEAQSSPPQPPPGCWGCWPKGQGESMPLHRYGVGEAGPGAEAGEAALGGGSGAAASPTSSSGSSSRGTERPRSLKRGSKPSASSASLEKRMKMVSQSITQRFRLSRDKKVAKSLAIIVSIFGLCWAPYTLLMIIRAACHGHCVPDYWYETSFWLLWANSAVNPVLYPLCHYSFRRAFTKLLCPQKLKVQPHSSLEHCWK

S=C(NC1CCCCC1)N1CCC(c2cnc[nH]2)CC1 [thioperamide]
Kb: 2.14 nM
